The source of these data is patent US7655756B2 (Johnson & Johnson Pharmaceutical Research & Development, LLC, priority 2005, dated 2010).

One assay addresses T1, ERRβ (Homo sapiens, UniProt O95718).
T1 sequence (O95718 208-432 limits assumed): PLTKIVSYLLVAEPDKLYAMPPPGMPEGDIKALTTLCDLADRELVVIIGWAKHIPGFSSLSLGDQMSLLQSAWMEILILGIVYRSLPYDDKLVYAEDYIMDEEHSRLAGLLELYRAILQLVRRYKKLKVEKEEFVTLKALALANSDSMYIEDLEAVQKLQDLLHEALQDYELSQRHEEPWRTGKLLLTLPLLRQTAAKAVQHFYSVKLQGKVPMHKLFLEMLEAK
Put plainly: ThermoFluor thermal shift assay, ERRβ. Type of assay: binding.

The target in a further assay is T2, ERα (Homo sapiens, UniProt P03372).
T2 sequence (P03372 1-595): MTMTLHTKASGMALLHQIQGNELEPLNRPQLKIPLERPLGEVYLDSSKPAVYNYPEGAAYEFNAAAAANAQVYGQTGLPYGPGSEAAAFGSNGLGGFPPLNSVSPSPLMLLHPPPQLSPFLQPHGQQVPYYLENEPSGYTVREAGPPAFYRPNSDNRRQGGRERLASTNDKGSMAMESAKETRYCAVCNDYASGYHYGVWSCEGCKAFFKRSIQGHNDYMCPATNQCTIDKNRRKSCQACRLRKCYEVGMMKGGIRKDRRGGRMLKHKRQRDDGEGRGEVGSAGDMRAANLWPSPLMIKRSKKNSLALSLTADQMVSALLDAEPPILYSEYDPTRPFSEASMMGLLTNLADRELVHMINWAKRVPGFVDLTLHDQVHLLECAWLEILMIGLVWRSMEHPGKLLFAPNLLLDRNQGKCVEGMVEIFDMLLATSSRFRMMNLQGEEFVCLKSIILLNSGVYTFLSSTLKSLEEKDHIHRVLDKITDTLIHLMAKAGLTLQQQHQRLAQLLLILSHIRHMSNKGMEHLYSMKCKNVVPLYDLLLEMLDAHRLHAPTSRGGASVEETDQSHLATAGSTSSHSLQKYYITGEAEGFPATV
Put plainly: ThermoFluor thermal shift assay, ERα. Type of assay: binding.

In assay [1] the target is T3, ligand binding domain of ERRγ (Homo sapiens, UniProt P62508).
T3 construct: 6His; made in house; host or cells: E. coli BL21(DE3)
T3 sequence (P62508 229-458): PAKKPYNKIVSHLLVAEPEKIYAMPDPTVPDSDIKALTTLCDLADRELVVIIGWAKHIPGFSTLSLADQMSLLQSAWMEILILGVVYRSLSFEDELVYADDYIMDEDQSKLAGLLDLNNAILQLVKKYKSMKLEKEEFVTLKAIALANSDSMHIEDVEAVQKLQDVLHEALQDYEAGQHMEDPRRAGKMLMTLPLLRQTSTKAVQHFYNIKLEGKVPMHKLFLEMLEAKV
Put plainly: Thermal denaturation monitored by CD spectroscopy. The settings on record: data not shown. The text has this: Ligand binding energy adds directly to the ground state energy of a macromolecule and results in increased thermal stability. The degree of stabilization is proportional to the binding affinity of the ligand for the macromolecule.

Another assay addresses T4, ERRα (Homo sapiens, UniProt P11474).
T4 sequence (P11474 193-421 limits assumed): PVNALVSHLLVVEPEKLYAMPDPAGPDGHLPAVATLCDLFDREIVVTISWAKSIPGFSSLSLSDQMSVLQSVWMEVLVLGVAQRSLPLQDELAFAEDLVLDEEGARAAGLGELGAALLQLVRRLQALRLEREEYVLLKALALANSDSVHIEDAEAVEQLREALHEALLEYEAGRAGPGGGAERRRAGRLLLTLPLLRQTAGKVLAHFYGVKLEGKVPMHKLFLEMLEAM
As to the kind of experiment: ThermoFluor thermal shift assay, ERRα. The settings on record: 100 μM test compound, 0.1 mg/mL protein, 25 mM HEPES pH 8.0, 25 μM ANS, 2% DMSO, Tm free protein 54.4 °C. Type of assay: binding.

Another assay has as its system pBIND-Gal4-ERRγ. As to the kind of experiment: Cell based reporter (trans-activation) assay in HEK293E cells. The conditions noted are these: luciferase reporter, Gal4-ERRγ and pACT-SRC2, 24 hours of compound treatment.
The target in a further assay is T5, ERRγ (Homo sapiens, UniProt P62508).
T5 construct: 6His; made in house; host or cells: E. coli BL21(DE3)
T5 sequence (P62508 229-458): T3 sequence (P62508 229-458)
Put plainly: Isothermal titration calorimetry. The format is binding. Here is the method:
The heat of interaction of the ligands with ERRγ molecules was measured by using the Omega titration calorimeter from Microcal Inc. In a typical titration, 1.4 mL of a 20 μM protein solution is titrated with a ligand solution of ˜0.4 mM concentration using a 100 μL syringe by ˜20 injections of 5-6 μL each. This syringe is also used to mix the reactants completely in the sample cell by rotating it at 400 rpm. For each injection, the area under the resulting peak is proportional to the heat of interaction, Q. Once this heat is corrected for the titrant dilution and normalized by the titrant solution concentration it becomes equal to the binding enthalpy, ΔHb, under nonsaturating conditions. The precision of the heat of each injection is about 0.5 μcal. One method of determining ΔHb is to average several intermediate peaks from the different sites. In addition to the binding enthalpies, one can obtain binding affinities, and overall stoichiometries of the complexes. The experimental calorimetric binding isotherm is the dependence of the total heat, Qr, (or dQrldX T) on the total concentration of ligand added, Xr. The above three parameters for each type of site are determined iteratively using the Marquardt algorithms as described previously.

For the next assay, the target named is T6, ERRγ-SRC2 complex (Homo sapiens, UniProt P62508).
T6 construct: made in house; host or cells: E. coli BL21(DE3) (ERRγ LBD)
T6 sequence (P62508 229-458): T3 sequence (P62508 229-458)
Put plainly: TR-FRET co-activator recruitment assay. Type of assay: biochemical. Here is the method:
For FRET measurements, the reaction was buffered in 25 mM Tris pH 8, 2.5 mM Hepes, 20 mM KCl, 1 mM DTT, and 0.05 mg/mL delipidated BSA.
Time-resolved Fluorescence resonance energy transfer (FRET) experiments were performed to examine the functional response of ERRγ ligands.
For FRET measurements, the reaction was buffered in 25 mM Tris pH 8, 2.5 mM Hepes, 20 mM KCl, 1 mM DTT, and 0.05 mg/mL BSA (-lipids). […] Reactions were allowed to reach equilibrium at 25° C. for 4-18 hours before collecting data on the Analyst from LJL Biosystems (Molecular Devices Sunnyvale, Calif.). […] Dose response curves were fitted using a hyperbolic equation and the data reported is the average of three independent experiments.

In a further assay the target is ERβ (Homo sapiens, UniProt Q92731). As to the kind of experiment: ThermoFluor thermal shift assay, ERβ. Type of assay: binding. The conditions noted are these: 100 μM test compound; 0.1 mg/mL protein, 25 mM HEPES pH 8.0; Tm free protein 41.1 °C; read-out: ΔTm, thermal stabilization of ERβ.
Sequence of ERβ (Q92731 whole entry, species assumed): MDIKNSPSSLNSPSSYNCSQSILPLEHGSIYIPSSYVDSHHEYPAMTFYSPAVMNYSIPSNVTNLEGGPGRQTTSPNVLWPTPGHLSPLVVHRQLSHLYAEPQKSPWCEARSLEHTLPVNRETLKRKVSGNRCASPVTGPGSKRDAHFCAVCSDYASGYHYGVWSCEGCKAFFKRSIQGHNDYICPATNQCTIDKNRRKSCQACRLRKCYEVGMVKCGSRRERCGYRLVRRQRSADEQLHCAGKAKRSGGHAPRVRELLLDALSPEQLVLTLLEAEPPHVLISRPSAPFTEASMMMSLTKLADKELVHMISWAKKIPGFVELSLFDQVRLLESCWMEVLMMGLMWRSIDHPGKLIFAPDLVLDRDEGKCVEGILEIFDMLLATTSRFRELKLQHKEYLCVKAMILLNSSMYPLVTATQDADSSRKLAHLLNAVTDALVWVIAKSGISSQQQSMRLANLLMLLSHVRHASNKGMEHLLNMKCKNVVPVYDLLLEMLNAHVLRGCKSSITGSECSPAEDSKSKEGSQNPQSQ

pKd: −log10 of the molar value. “Also recorded” adds a separate entry of the source.

Method for pBIND-Gal4-ERRγ: A cell based reporter assay was used to determine the functional response of the ERRγ hits. Transfections were performed in HEK293E cells that were maintained in DMEM supplemented in glutamine and 10% FBS. Co-transfections of 4 μg of a luciferase reporter plasmid and 4 μg of each pBIND-Gal4-ERRγ and pACT-SRC2 plasmids per T-75 flask were done using Lipofectamine as per manufacturers instructions. Twenty-four hours post-transfection, the cells were seeded in 96-well plates at density of 50,000 cells per well in assay media (DMEM phenol free, 5% charcoal stripped FBS). […] After 24 hours of compound treatment, cells were lysed and treated with the Promega Dual-Glo system. Firefly Luciferase activity was read using a luminescence plate reader, and data were normalized against Renilla luciferase activity. Data were fitted using subroutines available from GraphPad.

4-hydroxytamoxifen [4OHT]: the “ΔTm, thermal stabilization of ERRβ” value at ERRβ (100 μM test compound, 0.1 mg/mL protein, 25 mM HEPES pH 8.0, Tm free protein 47.5 °C) came to 2.15 °C. Besides, the pKd on ERRβ (calculated at reference temperature 25 °C from ΔTm of Table II, ΔHu 155 kcal/mol, read-out: Estimated dissociation constant, ERRβ) is 5.58. In addition, at ERα (pH 8), the ΔTm, thermal stabilization of ERα was determined as 17.1 °C. In addition, in assay [1], the “Thermal stabilization of ERRγ by loss of α-helicity (CD), in words” value is on record as “positive thermal stabilization”. The “ΔTm, thermal stabilization of ERRα” value on ERRα was −0.1 °C.
For `CC(C)(c1ccc(O)cc1)c1ccc(O)cc1` [BPA, bisphenol A], the ΔTm at 100 µM on ERRβ (100 μM test compound, 0.1 mg/mL protein, 25 mM HEPES pH 8.0, Tm free protein 47.5 °C, read-out: ΔTm, thermal stabilization of ERRβ) is -0.1 °C; on ERα (100 μM test compound, 0.1 mg/mL protein, 25 mM HEPES pH 8.0, Tm free protein 39.1 °C, read-out: ΔTm, thermal stabilization of ERα), 4.4 °C; on ERβ, 7.4 °C; on ERRα (read-out: ΔTm, thermal stabilization of ERRα), 0 °C. Moreover, the “Change in transcriptional activity in trans-activation cellular assay, in words” value in the assay on pBIND-Gal4-ERRγ is given as “not able to demonstrate”. For the same compound, the pKd on ERRγ (20 μM protein titrated with ~0.4 mM ligand, read-out: Binding affinity by isothermal titration calorimetry) was 7.15. Further, the “Binding enthalpy ΔHb” value on ERRγ (isothermal titration calorimetry) is roughly -21 kcal/mol. The “Enhancement in the affinity of the receptor for co-activator peptide fragments, in words” value on ERRγ-SRC2 complex was “not able to demonstrate”. In addition, the “Displacement of co-activator peptide from ERRγ (antagonism), in words” value at ERRγ-SRC2 complex (6 nM ERRγ LBD, 6 nM GST-SRC-2 peptide) is listed as “ineffective; also recorded: neither ligand displaced co-activator peptide”.
